Experimental data taken from US20100004316A1, “MULTIFUNCTIONAL CARRIERS FOR THE DELIVERY OF NUCLEIC ACIDS AND METHODS OF USE THEREOF” (UNIVERSITY OF UTAH RESEARCH FOUNDATION, priority 2006, published 2010).

Assays:
U87-Luc cells [1] = assay: Luciferase gene silencing with anti-luciferase siRNA in U87-Luc cells; format: cell-based
Description: THCO-mediated delivery of siRNA targeting a luciferase reporter gene. U87-Luc cells were seeded 24 hours prior to transfection into a 96-well plate at a density of 5000 cells/well. At the time of siRNA transfection, the medium in each well was replaced with fresh serum-free medium. 20 nM anti-luciferase siRNA or non-specific siRNA was complexed with THCO or Transfast™ or DOTAP and incubated for 30 min before use. The transfection by Transfast or DOTAP was performed according to the manufacture's instruction. Complexes were incubated with the cells for 4 hours at 37° C. The medium was then replaced with 100 μL of fresh complete medium and cells were incubated for additional 44 hours. All the transfection tests were performed in triplicate wells. After the incubation, cells were washed with pre-warmed PBS and treated with 200 μL cell lysis buffer and then subjected to a freezing-thawing cycle. Cellular debris was removed by centrifugation at 14,000 g for 5 minutes. The luciferase activity in cell lysate (20 μL) was measured using a luciferase assay kit (100 μL luciferase assay buffer) on a luminometer for 10 seconds (Lumat 9605, EG&G Wallac). The gene silencing efficiency was normalized against the luciferase expression of untreated cells. The siRNA delivery efficiency was also similarly evaluated in 10% FBS medium.
G. In vitro delivery of nucleic acids by MFCs MFC-mediated in vitro gene silencing with siRNA. U87-luc cells with constitutive expression of firefly luciferase were maintained in minimal essential medium (ATCC) containing 10% FBS, G418 (300 μg/mL), streptomycin (100 μg/mL) and penicillin (100 units/mL). U87-Luc cells were seeded 24 hours prior to transfection into a 96-well plate at a density of 5000 cells/well. At the time of siRNA transfection, the medium in each well was replaced with fresh serum-free medium. Anti-luciferase siRNA was complexed with the MFC, TransFast or DOTAP and incubated for 30 min before use. Complexes were incubated with the cells for 4 hours at 37° C. The medium was then replaced with 100 μL of fresh complete medium and cells were incubated for an additional 44 hours. The cells were then washed with pre-warmed PBS, treated with 200 μL cell lysis buffer and subjected to a freezing-thawing cycle. Cellular debris was removed by centrifugation at 14,000 g for 5 minutes. The luciferase activity in cell lysate (20 μL) was measured using a luciferase assay kit (100 μL luciferase assay buffer) on a luminometer for 10 seconds (Lumat 9605, EG&G Wallac). The gene silencing efficiency was normalized against the luciferase expression of untreated cells.

rat red blood cells = assay: Hemolysis assay at different pHs; format: cell-based; conditions: for hemolytic activity: 8.3 μM; for hemolysis: pH 7.4, 6.5 and 5.4 (all cases)
Description: Hemolysis assay. THCO (16.7 μM), DOTAP (16.7 μM) and Triton X-100 (1%, w/v) were dissolved in phosphate buffered saline (PBS) at a starting pH of 7.4, 6.5, or 5.4 as stock solutions. A rat was sacrificed and blood was obtained by cardiac puncture. Erythrocytes (RBC) were isolated by centrifugation at 1500 g for 10 min at 4° C. The cell pellet was resuspended into a 2% (w/v) RBC solution with prechilled PBS and then seeded (100 μL) into a 96-well plate. 100 μL of testing samples were added to RBC solutions and the plate was incubated for 1 h at 37° C. The absorbance of the supernatant from each sample was measured at 550 nm using a micro-plate reader.
Hemolysis assay. The assays were performed using the techniques described above. The pH sensitive amphiphilic cell membrane disruption of the MFCs was evaluated by hemolysis assay with rat red blood cells at different pHs. […] Generally, all MFCs had lower hemolytic activity at pH 7.4 than at pH 6.5 and 5.4.

U87-Luc cells [2] = assay: Cytotoxicity of MFC/siRNA complexes (MTT); format: cell-based; conditions: siRNA complexes, 100 nM siRNA
Description: Cytotoxicity of MFC/siRNA complexes. U87-luc cells were incubated with MFC/siRNA complexes of different carriers according to the protocol described above. MTT in PBS (5 mg/mL, 25 μL) was added to each well after incubation and cells were incubated for another 2 hours. After cell culture medium was removed, 200 μL DMSO was added to each well and cells were incubated at 37° C. for 5 min. The optical absorption was measured at 570 nm using a micro-plate reader (Model 550, Bio-Rad Lab. Hercules, Calif.). The relative cell viability was calculated with the equation ([Abs]sample-[Abs]blank)/([Abs]control-[Abs]blank)×100%.

U87-luc xenograft = assay: In vivo luciferase knockdown with anti-luc siRNA complexes, bioluminescence imaging; set-up: species or system mice; conditions: 50 μg anti-luciferase siRNA i.p.
Description: Animal tumor model. U87 cells with stably expression of luciferase were collected and resuspended with medium/matrigel mixture (v/v=l/l). 100 μL of cell suspension containing 2 million cells were injected subcutaneously in the right flanks of the mice.
Carriers. EHCO was selected for the study. DOTAP is a commercial available transfection agent that has been used to deliver siRNA in vivo and was used as a control carrier. siRNAs. Anti-Luciferase siRNA was used to knockdown luciferase expression in mice so as to noninvasively detect gene silencing efficiency by bioluminescence imaging. […] The sequence of antisense is 5′-[…]dTdT-3′ and that of sense is 3′-dTd[…]-5′. siRNA targeting HIF was provided Huntsman Cancer Institute, University of Utah. The sequence of antisense is 5′-[…]dTdT-3′ and that of sense is 3′-dTdT […]-5′.
Administration of Anti-Luc siRNA complexes and Luciferase mouse imaging. Bioluminescence imaging of mice were taken one day before the administration of the anti-luciferase complexes. […] Images were quantified using LivingImage software (Xenogen). […] The luminescence signal intensity on the day before the mice received the anti-luc complexes were set as 100% and the subsequent luciferase expression level in mice after siRNA treatments were normalized to the percentage relative to those at day 0.

[3] = Particle size of MFC/siRNA complexes by dynamic light scattering
Description: Particle Size Analysis. Samples were prepared by mixing 5.0 μg of plasmid DNA or siRNA with appropriate amount of materials in dust-free water and analyzed using a Brookhaven Instruments BI-200SM system equipped with a 5 mW helium neon laser with a wavelength output of 633 nm. The effective diameter and population distribution were computed from the diffusion coefficient using functions supplied by the instrument. Measurements were made at 25° C. at an angle of 90° and each sample was analyzed in triplicate.
Formation and size measurement of MFC/siRNA nanoparticles. MFC/siRNA nanoparticulate complexes were prepared and characterized using the techniques described above. The complexation of the polymerizable MFCs with siRNA and formation of nanoparticles of the complexes were investigated by dynamic light scattering. EHCO was first used to study the complexation with siRNA and the impact of N/P ratios on the complexation and formation of nanoparticles. […] The particle size of siRNA complexes with other polymerizable surfactants was measured at the N/P ratios of 8 and 10 based on the observation with EHCO.

U87 cells = assay: MTT cytotoxicity assay in U87 cells; format: cell-based; conditions: concentration of 250 μg/mL, 24 h
Description: In another study, U87 cells were seeded in a 96-well plate 24 h before the assay at a density of 10,000 cells/well. The cells were incubated with 200 μL of medium containing THCO at different concentrations and incubate for 24 h. Then 25 μL MTT solution in PBS was added and cells were incubated for another 2 hours. After removing media, 200 μL of DMSO was added to the wells and cells were incubated at 37° C. for 5 min. The optical densities were measured at 570 nm using a micro-plate reader (Model 550, Bio-Rad Lab. Hercules, Calif.). The relative cell viability was calculated as described above. […] The viability of U87 cells incubated with THCO was 79±8% at a concentration of 250 μg/mL as determined the MTT assay, slightly higher than that of DOTAP (72±4%) (FIG. 8).

| particle size of siRNA complexes (diameter) ([3]; N/P ratio of 0.5, incubated 30 minutes) | particle size of siRNA complexes ([3]; N/P ratio of 4) | particle size of siRNA complexes ([3]; N/P ratio of 6) | particle size of siRNA complexes (diameter) ([3]; N/P ratio of 8, dust free water) | particle size of siRNA complexes ([3]; N/P ratio of 10) | Compound | luciferase silencing (transfection) efficiency (U87-Luc cells [1]; 20 nM siRNA, MFCs at N/P ratio of 10, FIG. 21b) | knockdown of luciferase expression (U87-Luc cells [1]; 100 nM siRNA, MFCs at N/P ratio of 10, FIG. 21a) | hemolytic activity (rat red blood cells; pH 6.5, PBS) | hemolytic activity (rat red blood cells; pH 7.4, PBS) | cell viability (U87-Luc cells [2]) | reduction of luciferase expression in the tumor (U87-luc xenograft; after two treatments) | viability of U87 cells (U87 cells) | gene silencing efficiency (U87-Luc cells [1]; 20 nM siRNA, serum free medium, THCO N/P=8, FIG. 12) | gene silencing efficiency (U87-Luc cells [1]; 20 nM siRNA, serum-free medium, THCO at N/P ratios from 4 to 16) | hemolysis (rat red blood cells) | effect on luciferase expression in the tumor (U87-luc xenograft; two treatments) |
| --- | --- | --- | --- | --- | --- | --- | --- | --- | --- | --- | --- | --- | --- | --- | --- | --- |
| approximately 200 nm | about 3 μm | approximately 240 nm | approximately 200 nm | ~151 nm | CCCCCCCCC=CCCCCCCCC(=O)NC(CS)C(=O)NC(Cc1cnc[nH]1)C(=O)NCCNC(=O)CCN(CCN)CCC(=O)NCCNC(=O)C(Cc1cnc[nH]1)NC(=O)C(CS)NC(=O)CCCCCCCC=CCCCCCCCC (centres unmarked) [EHCO, (1-aminoethyl)imino-bis[N-(oleicyl-cysteinyl-histinyl-1-aminoethyl)propion-amide]] | 74.5±1.0% | 88.4±3.1% | negligible hemolysis | negligible hemolysis | 86.7±8.3% | more than 50% | – | – | – | – | – |
| – | – | – | – | – | N-(2,3-dioleoyloxy-1-propyl)trimethylammonium methyl sulfate [DOTAP, reference compound] | – | – | – | – | – | – | 72±4% | 47.1±3.8% | 47% | Little hemolysis | did not have significant effect after the second treatment |
| – | – | – | – | – | Triton X-100 [reference compound] | – | – | – | – | – | – | – | – | – | complete hemolysis | – |
